# Measurements published in patent EP4361137A1, “PRUNE1 INHIBITORS AND THERAPEUTIC USE THEREOF” (CEINGE Biotecnologie Avanzate Franco Salvatore s.c. a r.l., priority 2022, dated 2024).
# Entries after “also recorded” stand apart in the source; their conditions may differ.
# System: MATH1-Prune1/ TP53-/-
# Experiment: Orthotopic implantation of MATH1-Prune1/TP53-/- cells in immunocompetent syngeneic mice, tumor growth
# Assay type: in vivo, FVB WT mice
# Conditions: for intracranial tumor growth (bioluminescence, photon emission) / BLI signal from the spinal cord (metastasis): 6 mg/kg/day intraperitoneally for 7 days, T17, HCl salt; for BLI signal from the spinal cord (metastasis): ex vivo
# Experimental: MATH1-Prune1/ TP53-/- were implanted into the right cerebellar hemisphere of female (n.10) immunocompetent syngeneic mice model (5 weeks old, strain: FVB WT) to establish intracerebellar MATH1-Prune1/ TP53-/- models. Mice were anaesthetised with Ketamine/ Xylazine (87.5 mg/kg, 12.5 mg/kg, respectively). The mice were then placed in a stereotactic frame by hooking their incisors onto the frame hold. A small skin incision (length, 1 mm) and a burr hole (diameter, 0.7 mm) were created using a microsurgical drill (Fine Science Tools, Foster City, CA, USA of MATH1-Prune1/ TP53-/- (1.5 ×10^5) were resuspended in 10 µL PBS and injected slowly through the burr hole into the right cerebellar hemisphere (stereotactic coordinates from Bregma: anteroposterior, 5.5 mm; right lateral, 2.1 mm; dorsoventral 5.0 mm), with a steady force over 30 s, using a 10-AL, 26-gauge Hamilton Gastight model 1701RN syringe needle (SigmaAldrich) that was inserted perpendicular to the cranial surface. The incision was sutured using Safil polyglycolic acid synthetic absorbable suture (6/0). The mice were kept on a warming blanket after the surgery, to help them to maintain their body temperature. Their mobility and respiratory patterns were observed continuously, and once the mice had recovered from the anaesthesia; they were place in a sterile housing cage. The mice were monitored daily for development of potential neurological deficits. 10 days after the implantation of the cells, the mice were imaged, and tumour growth was evaluated by bioluminescence acquisition using an imaging system (IVIS 3D Illumina; Xenogen/ Caliper). For the acquisitions, the mice were anaesthetised by inhalational of isoflurane, and the D-luciferin (122799; PerkinElmer) (15 mg/mL stock) was injected intraperitoneally (100 µL per 10 g body weight). At 5 min from the luciferin injection, the mice were imaged for 3 min. To quantify the bioluminescence, the integrated fluxes of photons (p/s) within each area of interest were determined using the Living Images Software Package 3.2 (Xenogen-Perkin Elmer). […] After 17 days from tumour implantation (i.e., after one weeks of LEO-AA7.5(S)T treatment), the mice were sacrificed, and the organs were collected for immunohistochemistry and immunofluorescence analyses.
# Paraffin sections of the tumor specimens (thickness, 3 µm) were deparaffinised and rehydrated by immersing the slides in Xylene Substitute (A5597; Sigma), as three washes for 5 min each, then serially in 100%, 95%, 70%, 50%, and 30% ethanol (two washes for 10 min, for each), and deionised water (two washes, for 5 min each). The washes were then followed by PBS, PBS containing 0.02% Triton-X 100 (215680010; Acros Organics), and PBS (two washes for 5 min, for each). For antigen retrieval, the slides were immersed in boiling 10 mM sodium citrate buffer (pH 6.0) using a microwave oven, and then maintained at sub-boiling temperature for 10 min. The slides were left to cool at room temperature for 30 min. The sections were then washed by immersion in distilled water for 5 min. To block endogenous peroxidase activity, the tissue sections were placed in a solution with 3.0% hydrogen peroxide in methanol for 15 min. Then, to decrease the nonspecific background fluorescence, the tissues were digested by treating them with a solution containing 0.2% trypsin (T2600000; Sigma-Aldrich) and 0.001% CaCl2 for 10 min at 37 °C, in a humidified chamber. The slides were then washed in PBS, PBS containing 0.02% Triton-X 100 (215680010; Acros Organics), and PBS (two washes for 5 min, for each). The tissue sections were blocked with 6% bovine serum albumin (A9418; Sigma), 5% fetal bovine serum (ECS0180L; Euroclone), and 20 mM MgCl2 in PBS containing 0.02% Triton-X 100, for 1 h at room temperature, and incubated overnight with the primary antibodies at 4 °C in a humidified chamber. […]
# [1] = listed as (S)-(1-(4-((4-methoxybenzyl)amino)-1,3,5-triazin-2-yl)piperidin-3-yl)methanol HC
structure (smiles),measurement,setting,value
"COc1ccc(CNc2ncnc(N3CCC[C@H](CO)C3)n2)cc1.Cl [LEO-AA7.5(S)T, (S)-(1-(4-((4-methoxybenzyl)amino)-1,3,5-triazin-2-yl)piperidin-3-yl)methanol HCl salt]","intracranial tumor growth (bioluminescence, photon emission)",,impairment of tumour growth
same,"intracranial tumor growth (bioluminescence, photon emission)",[1],significantly decreased; also recorded: anti-tumorigenic action
same,BLI signal from the spinal cord (metastasis),,decrease of metastasis
same,BLI signal from the spinal cord (metastasis),[1],decreased intensity of BLI signal
same,immunosuppressive T cells (CD4+PD1+FOXP3+ and CD8+PD1+FOXP3+) in the tumor microenvironment,"6 mg/kg/day, immunofluorescence of cerebellar tumor sections",reduced
